In experiment [1] the test system is Escherichia coli. The experiment in a line: Antibacterial activity against Escherichia coli mutant (envA1) was determined. The format is functional.
Experiment [2] has as its system Escherichia coli. Put plainly: Antibacterial activity against Escherichia coli was determined. The format is functional.
The target in experiment [3] is T1, UDP-3-O-acyl-N-acetylglucosamine deacetylase (Escherichia coli K-12, UniProt P0A725).
T1 sequence (P0A725 whole entry): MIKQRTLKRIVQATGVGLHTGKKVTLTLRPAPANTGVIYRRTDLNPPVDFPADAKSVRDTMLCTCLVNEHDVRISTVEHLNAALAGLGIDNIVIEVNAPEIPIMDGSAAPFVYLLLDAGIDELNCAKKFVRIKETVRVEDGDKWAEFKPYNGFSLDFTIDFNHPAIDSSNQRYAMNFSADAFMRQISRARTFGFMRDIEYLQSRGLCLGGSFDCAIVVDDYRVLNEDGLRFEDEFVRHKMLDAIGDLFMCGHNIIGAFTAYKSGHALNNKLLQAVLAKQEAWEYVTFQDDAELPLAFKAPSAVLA
Put plainly: Inhibition of UDP-3-O-[R-3-hydroxymyristoyl]-GlcNAc deacetylase using direct deacetylase assay (DEACET) in Escherichia coli strain JB 1104.

Experiment [4] concerns Escherichia coli. Put plainly: Antibacterial activity against Escherichia coli mutant (envA1) was determined; Ranges from 0.008-0.016. The format is functional.
Experiment [5] deals with Escherichia coli. The experiment in a line: Antibacterial activity against Escherichia coli was determined; Ranges from 1-3. Type of experiment: functional.
Experiment [6] relates to Pseudomonas. The experiment in a line: Antibacterial activity against Pseudomonas was determined; NA=not active. The format is functional, organism-based.
The test system of experiment [7] is Serratia. The experiment in a line: Antibacterial activity against Serratia was determined; NA=not active. Type of experiment: functional, organism-based.
For experiment [8], the system named is Escherichia coli. Put plainly: Antibacterial activity of against Escherichia coli mutant (envA1) was determined. Type of experiment: functional, organism-based.
The target of experiment [9] is T1, UDP-3-O-acyl-N-acetylglucosamine deacetylase. The experiment in a line: Inhibition of UDP-3-O-[R-3-hydroxymyristoyl]-GlcNAc deacetylase using coupled radiochemical assay (WAVE) in Escherichia coli strain JB 1104.
In experiment [10] the test system is Escherichia coli. The experiment in a line: Antibacterial activity against Escherichia coli was determined; Ranges from 200-400. The format is functional.
Experiment [11] has as its system Escherichia coli. The experiment in a line: Antibacterial activity against Escherichia coli was determined; Ranges from […]. Type of experiment: functional.
Experiment [12] has as its system Escherichia coli. The experiment in a line: Antibacterial activity against Escherichia coli was determined; Ranges from 25-50. The format is functional.

Here are results for 26 compounds from ChEMBL document CHEMBL1131914, “Carbohydroxamido-oxazolidines: antibacterial agents that target lipid A biosynthesis” (Bioorg Med Chem Lett, 1999).

The structures appear in SMILES notation. Values after ≈ are worked out from the molar mass of the structure shown. Active and inactive are the calls of the source. No cut-off for these calls is given here. Some results are limits rather than exact numbers.

As for `CCCc1cc(C2=NC(C(=O)NO)CO2)cc(OC)c1O` (configuration not stated), the figures for the MIC in experiment [1] and in experiment [2] were 0.39 µg/mL (≈ 1.33 µM) and above 100 µg/mL, respectively. In [3], half-maximal inhibition (IC50) was put at 1400 nM.

As to `CCCc1cc(C2=N[C@@H](C(=O)NO)CO2)cc(OC)c1OC`, the results for the MIC in experiment [4] and in experiment [5] were 8 ng/mL (≈ 0.0259 µM) and 1 µg/mL (≈ 3.24 µM), respectively. Further, the MIC entry in experiment [6] and in experiment [7] was “inactive” throughout. Moreover, in experiment [3], the IC50 (usually the concentration at which inhibition is half-maximal) was 30 nM.

In the case of `COc1cc(C2=N[C@@H](C(=O)NO)CO2)cc(OC)c1OC`, in [8], the MIC (in general, the lowest concentration found to suppress growth) is “inactive”. In experiment [3], this compound gave a half-maximal inhibitory concentration (IC50) of 300 nM.

Turning to `O=C(NO)C1COC(c2ccncc2)=N1` (configuration not stated), in [8], the MIC result was “inactive”. In experiment [3], this compound showed an IC50 of 100000 nM.

As for `Cc1ccccc1C1=NC(C(=O)NO)CO1` (configuration not stated), in experiment [8], the MIC entry was “inactive”. Besides, the IC50 in [9] (read-out: IC50) turned out to be 2600 nM.

As for `O=C(NO)C1COC(c2c(Cl)cccc2Cl)=N1` (configuration not stated), in [8], the MIC entry is “inactive”. Also, the IC50 entry was “Not Active” in experiment [9] and above 200000 nM in experiment [3].

For `O=C(NO)C1COC(c2ccccc2)=N1` (configuration not stated), the minimum inhibitory concentration (MIC) in experiment [1] amounted to 3.6 µg/mL (≈ 17.5 µM); in experiment [10] it was 200 µg/mL (≈ 970 µM). Besides, the values for the half-inhibitory concentration (IC50) in [9] (read-out: IC50) and in experiment [3] were 3000 nM and 8500 nM, respectively.

In the case of `COC(=O)C1COC(c2ccccc2)=N1` (configuration not stated), in experiment [9] (read-out: IC50), the concentration for half-maximal inhibition (IC50) is above 400000 nM.

For the compound `CCCc1cc(C2=NC(C(=O)NO)CO2)cc(OC)c1OC` (configuration not stated), the minimal inhibitory concentration (MIC) in [1] was below 0.05 µg/mL; in [11] it was 3 µg/mL (≈ 9.73 µM). This compound also had an IC50 in [3] of 50 nM.

Consider `CCCc1cc(C2=NC(C(=O)NO)CO2)cc(OCc2ccccc2)c1OC` (configuration not stated), for which the MIC in [1] was below 0.008 µg/mL; in [2] it was 25 µg/mL (≈ 65 µM). Also, inhibition in [3] was half-maximal at 20 nM (IC50).

Turning to `CCc1ccc(C2=N[C@@H](C(=O)NO)CO2)cc1`, in experiment [8], the MIC result is “inactive”. For the same compound, the figures for the IC50 in experiment [9] (read-out: IC50) and in experiment [3] were 200 nM and 600 nM, respectively.

`O=C(O)C1COC(c2ccccc2)=N1` (configuration not stated): the IC50 in experiment [9] (read-out: IC50) was above 400000 nM.

Regarding `CN(OCc1ccccc1)C(=O)[C@H]1COC(c2ccccc2)=N1`, the IC50 in experiment [9] (read-out: IC50) is above 400000 nM.

Consider `Cc1ccc(C2=NC(C(=O)NO)CO2)cc1` (configuration not stated), for which the MIC result in [8] is “inactive”. In addition, in experiment [9] (read-out: IC50), the IC50 came out at 1700 nM.

Turning to `COc1ccc(C2=N[C@@H](C(=O)NO)CO2)cc1`, the results for the MIC in experiment [1] and in experiment [12] were 0.25 µg/mL (≈ 1.06 µM) and 25 µg/mL (≈ 106 µM), respectively. The figures for the IC50 in experiment [9] (read-out: IC50) and in experiment [3] were 300 nM and 1400 nM, respectively.

With `CCCc1ccc(C2=N[C@@H](C(=O)NO)CO2)cc1`, the MIC result in [8] is “inactive”. The IC50 in experiment [9] (read-out: IC50) turned out to be 100 nM.

Regarding `O=C(NO)[C@@H]1COC(c2ccccc2)=N1`, in experiment [9] (read-out: IC50), the IC50 came out at 360000 nM.

Regarding `Cc1cccc(C2=NC(C(=O)NO)CO2)c1` (configuration not stated), in experiment [8], the MIC result is “inactive”. In addition, in [9] (read-out: IC50), the concentration for half-maximal inhibition (IC50) is 1100 nM.

With `CCCc1cc(C2=NC(C(=O)NO)CO2)ccc1OC` (configuration not stated), the MIC in experiment [1] is 0.1 µg/mL (≈ 0.359 µM); in [2] it was 12.5 µg/mL (≈ 44.9 µM). Further, in [3], half-maximal inhibition (IC50) required 300 nM.

For the compound `CN(O)C(=O)[C@H]1COC(c2ccccc2)=N1`, in [9] (read-out: IC50), the half-maximal inhibitory concentration (IC50) was above 400000 nM.

Take `O=C(NO)[C@H]1COC(c2ccco2)=N1`: in experiment [8], the MIC result is “inactive”. Also, the 50% inhibitory concentration (IC50) in experiment [9] (read-out: IC50) came out at 9000 nM.

For the compound `O=C(NO)[C@H]1COC(c2ccccc2)=N1`, the results for the IC50 in [9] (read-out: IC50) and in [3] were 1500 nM and 6000 nM, respectively.

With `O=C(NO)C1COC(c2cccnc2)=N1` (configuration not stated), in experiment [8], the MIC result is “inactive”. This compound registered an IC50 in experiment [3] of 100000 nM.

`O=C(NO)C1COC(c2ccccc2Cl)=N1` (configuration not stated) displayed an IC50 in experiment [3] of 30000 nM.

With `CCCc1cc(C2=NC(C(=O)NO)CO2)cc(O)c1OC` (configuration not stated), the minimum inhibitory concentration (MIC) amounted to 0.06 µg/mL (≈ 0.204 µM) in experiment [1] and 12.5 µg/mL (≈ 42.5 µM) in experiment [2]. In experiment [3], this compound showed a concentration for half-maximal inhibition (IC50) of 100 nM.

For `CCCc1cccc(C2=N[C@@H](C(=O)NO)CO2)c1`, the MIC in experiment [1] is 0.06 µg/mL (≈ 0.242 µM); in [2], 12.5 µg/mL (≈ 50.3 µM). Moreover, the IC50 in experiment [9] (read-out: IC50) worked out at 50 nM; in experiment [3] it was 1600 nM.
